Target: T1, full length SGK1 (Homo sapiens, UniProt O00141)
T1 construct: 125 μM full length SGK1 (Life Technologies Part #PR7358A); purchased Life Technologies PR7358A
T1 sequence (O00141 1-431): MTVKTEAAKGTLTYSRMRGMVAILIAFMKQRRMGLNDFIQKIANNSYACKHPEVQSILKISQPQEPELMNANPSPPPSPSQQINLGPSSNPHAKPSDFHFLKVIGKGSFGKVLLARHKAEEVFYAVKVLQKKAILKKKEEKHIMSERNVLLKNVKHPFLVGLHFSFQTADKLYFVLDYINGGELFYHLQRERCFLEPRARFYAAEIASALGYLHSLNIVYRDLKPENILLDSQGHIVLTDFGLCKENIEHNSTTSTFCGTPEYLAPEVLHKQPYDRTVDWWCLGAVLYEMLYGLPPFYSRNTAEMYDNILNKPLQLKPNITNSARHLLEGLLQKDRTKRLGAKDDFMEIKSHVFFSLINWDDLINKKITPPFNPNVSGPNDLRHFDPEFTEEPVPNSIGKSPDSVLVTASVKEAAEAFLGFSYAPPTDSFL
Test: SGK1 inhibition Assay A (Caliper LabChip electrophoretic separation of fluorescent peptide substrate and phosphorylated product)
Assay type: biochemical
Settings: Assay A; 20 μM ATP, 40 min incubation; read-out: SGK1 IC50

Row | SMILES | IC50 [nM]
1 | Nc1ncnn2c(-c3ccnc(C(F)F)c3)cc(N3CCC[C@@H](NC(=O)c4sc(Cl)cc4OCCN4CCOCC4)C3)c12 [Example 341, (R)—N-(1-(4-amino-7-(2-(difluoromethyl)pyridin-4-yl)pyrrolo[2,1-f][1,2,4]triazin-5-yl)piperidin-3-yl)-5-chloro-3-(2-morpholinoethoxy)thiophene-2-carboxamide] | 2
2 | CC(=O)N1CC=C(c2cc(N3CCC[C@@H](NC(=O)c4sc(Cl)cc4OC4CN(C)C4)C3)c3c(N)ncnn23)C1 [Example 576, (R)-N-(1-(7-(1-acetyl-2,5-dihydro-1H-pyrrol-3-yl)-4-aminopyrrolo[2,1-f][1,2,4]triazin-5-yl)piperidin-3-yl)-5-chloro-3-((1-methylazetidin-3-yl)oxy)thiophene-2-carboxamide] | 7
3 | CS(=O)(=O)c1ccc(-c2cc(N3CCC[C@@H](NC(=O)c4ccnc(N)c4)C3)c3c(N)ncnn23)cc1 [Example 39, (R)-2-amino-N-(1-(4-amino-7-(4-(methylsulfonyl)phenyl)pyrrolo [2,1-f][1,2,4]triazin-5-yl)piperidin-3-yl)isonicotinamide] | 48
4 | NC(=O)c1ccc(-c2cc(N3CCC[C@@H](NC(=O)c4sc(Cl)cc4OC4CN(CC(F)F)C4)C3)c3c(N)ncnn23)cc1F [Example 386, (R)-N-(1-(4-amino-7-(4-carbamoyl-3-fluorophenyl)pyrrolo[2,1-f][1,2,4]triazin-5-yl)piperidin-3-vl)-5-chloro-3-((1-(2,2-difluoroethyl)azetidin-3-yl)oxy)thiophene-2-carboxamide] | 6
5 | CN(C)CCOc1cc(Cl)sc1C(=O)N[C@@H]1CCCN(c2cc(-c3ccc(-n4cnnn4)c(F)c3)n3ncnc(N)c23)C1 [Example 188] | 4
6 | CC(=O)N1CC=C(c2cc(N3CCCC(NC(=O)c4sc(Cl)cc4OC4CC5CC4CN5C)C3)c3c(N)ncnn23)C1 (single isomer, unassigned) [Example 609] | 7
7 | CC(=O)N1CC=C(c2cc(N3CCC[C@@H](NC(=O)c4sc(Cl)cc4OC4CC5(C4)CN(C)C5)C3)c3c(N)ncnn23)C1 [Example 581, (R)-N-(1-(7-(1-acetyl-2,5-dihydro-1H-pyrrol-3-yl)-4-aminopyrrolo[2,1-f][1,2,4]triazin-5-yl)piperidin-3-yl)-5-chloro-3-((2-methyl-2-azaspiro[3.3]heptan-6-yl)oxy)thiophene-2-carboxamide] | 4

Now from value to molecule:

Row | IC50 [nM] | SMILES
8 | 6 | CC(=O)N1CC=C(c2cc(N3CCC[C@@H](NC(=O)c4sc(Cl)cc4OC4CNC4)C3)c3c(N)ncnn23)C1 [Example 633, (R)-N-(1-(7-(1-acetyl-2,5-dihydro-1H-pyrrol-3-yl)-4-aminopyrrolo[2,1-f][1,2,4]triazin-5-yl)piperidin-3-yl)-3-(azetidin-3-yloxy)-5-chlorothiophene-2-carboxamide]
9 | 0.9 | N#Cc1ccc(-c2cc(N3CCC[C@@H](NC(=O)c4sc(Cl)cc4OCC4CCNCC4)C3)c3c(N)ncnn23)cn1 [Example 641, (R)-N-(1-(4-amino-7-(6~cyanopyridin-3-y1)pyrrolo[2,1-f][1,2,4]triazin-5-y1)piperidin-3-yl)-5-chloro-3-(piperidin-4-ylmethoxy)thiophene-2-carboxamide]
10 | 4 | CN(C)CCOc1cc(Cl)sc1C(=O)N[C@@H]1CCCN(c2cc(C3=CCN(C(=O)c4cnco4)C3)n3ncnc(N)c23)C1 [Example 907, (R)-N-(1-(4-amino-7-(1-(oxazole-5-carbonyl)-2,5-dihydro-1H-pyrrol-3-yl)pyrrolo[2,1-f][1,2,4]triazin-5-yI)piperidin~3-y1)-5-chloro-3-(2-(dimethylamino)ethoxy)thiophene-2-carboxamide]
11 | 4 | Nc1ncnn2c(C3=CCN(C(=O)c4cncs4)C3)cc(N3CCC[C@@H](NC(=O)c4ccc(Cl)s4)C3)c12 [Example 886, (R)-N-(1-(4-amino-7-(1-(thiazole-5-carbonyl)-2,5-dihydro-1H-pyrrol-3-yl)pyrrolo[2,1-f][1,2,4]triazin-5-yl)piperidin-3-y1)-5-chlorothiophene-2-carboxamide]

Reference: patent publication US20260250290A1 (BRISTOL-MYERS SQUIBB COMPANY, priority 2023, published 2026)
